US20180325893A1, “SUBACUTE ADMINISTRATION OF NMDA MODULATORS ALONE OR IN COMBINATION” (Northwestern University, priority 2015, published 2018)
Entries after “also recorded” stand apart in the source; their conditions may differ. Peptide text beside a SMILES is read from it.

Columns and labels:
Type in all cases: in vivo
[1] = system: male C57BL/6J mice; experiment: NOR in subchronic ketamine-treated mice (Examples 2 and 3)
Method: (§1) Three cohorts of male C57BL/6J mice (2½-3 month old, Jackson, Mass., USA), N=40, 45, and 48 were used in Examples 1, 2, 3 respectively. Mice were group housed (five/cage) in a controlled environment held at 21±2° C. and 50±15% relative humidity with a 14:10 h light-dark period (lights on: 05:00 am). All experiments were conducted during the light phase. Food and water were available ad libitum. The mice were habituated to the colony upon arrival for a week, during which time, they were not handled. All experiments were conducted in accordance with Institutional Animal Care and Use Committee of Northwestern University, Chicago.
(§2) Rapastinel was obtained from SAI Life Sciences (India). PCP was a generous gift from National Institute of Drug Abuse. Ketamine was purchased from Sigma Aldrich (St. Louis, Mo.). Lurasidone was provided by Sumitomo Dainippon Pharma Co., Ltd. (Osaka, Japan). Rapastinel, PCP, and ketamine were dissolved in 0.9% sterile saline (Sal). PCP and ketamine were administered intraperitoneally (ip), at a volume of 10 mL/kg body weight. Rapastinel was given intravenously (iv). The dose of rapastinel (1.0 mg/kg) was chosen because it produced optimal enhancement in learning in both young adult and aged rats and in a trace eye blink conditioning task in rabbits. […] The dose for lurasidone (0.1 mg/kg) was chosen based on prior NOR studies in C57BL/6J mice which determined the effective dose of lurasidone to restore NOR in subchronic PCP-treated mice.
(§3) For acute drug treatments, rapastinel (1.0 mg/kg, iv), lurasidone (0.1 mg/kg, i.p.) or ketamine (30 mg/kg, ip) were administered 30 min prior to the acquisition trial of the NOR task (described below) to the subchronic ketamine or subchronic PCP-treated animals. For subchronic drug treatments, 7-10 mice/cohort were randomly assigned to Sal, PCP, or ketamine. The Sal-treated mice received 0.9% NaCl; the drug treatment groups received either PCP (10 mg/kg; ip), or ketamine (30 mg/kg; ip) twice daily for 7 days. This was followed by a 7 day washout period during which time, mice were left undisturbed in the home cage until initiation of habituation (see below).
(§4) NOR testing in mice was slightly modified from Hashimoto et al (Hashimoto K.; Fujita Y.; Shimizu E.; Iyo M. European Journal of Pharmacology 2005, 519:114-7). […] Similar observations were made when large objects were used. […] It was observed that C57BL/6J mice explored less when the duration of trials were 3 or 5. […] The NOR apparatus consisted of an open box made of Plexiglas (52 cm L; 52 cm W; 31 cm H) with white walls and a solid floor. The box was positioned approximately 30 cm above the floor, centered on a table such that the overhead lights could not provide a spatial cue. One day after the 7 day washout from subchronic drug treatment or Sal, mice were habituated to the empty NOR arena, as a group, for one hour, on each of three days prior to the acquisition trial. During the acquisition trial, the mice were allowed to explore two identical objects (e.g. A1 and A2) for 10 min. This was followed by a 24-hour inter-trial interval, after which the mice were returned to the home cage. During the retention trial, the mice were allowed to explore the familiar object (A) from the acquisition trial and a novel object (e.g. B). The location of the novel object in the retention trial was randomly assigned for each mouse tested using a pseudorandom schedule. […] Also, to avoid bias or olfactory trails, objects were used in triplicates, i.e. that the same object that was used in the acquisition trial was not presented in retention trial. Behavior was recorded on video for blind scoring of object exploration. Object exploration was defined as an animal licking, sniffing, or touching the object with the forepaws while sniffing. […] The discrimination index (DI) [(time spent exploring the novel object—time spent exploring the familiar object)/total exploration time] was then calculated for retention trials. […]

[2] = system: male C57BL/6J mice; experiment: NOR in subchronic PCP-treated mice (Example 2); conditions: for preference for novel versus familiar object, retention trial: Example 2
Method: as §1, §2, §3
NOR testing in mice was slightly modified from Hashimoto et al (Hashimoto K.; Fujita Y.; Shimizu E.; Iyo M. European Journal of Pharmacology 2005, 519:114-7). […] Similar observations were made when large objects were used. […] It was observed that C57BL/6J mice explored less when the duration of trials were 3 or 5. […] The NOR apparatus consisted of an open box made of Plexiglas (52 cm L; 52 cm W; 31 cm H) with white walls and a solid floor. The box was positioned approximately 30 cm above the floor, centered on a table such that the overhead lights could not provide a spatial cue. One day after the 7 day washout from subchronic drug treatment or Sal, mice were habituated to the empty NOR arena, as a group, for one hour, on each of three days prior to the acquisition trial. During the acquisition trial, the mice were allowed to explore two identical objects (e.g. A1 and A2) for 10 min. This was followed by a 24-hour inter-trial interval, after which the mice were returned to the home cage. […] Behavior was recorded on video for blind scoring of object exploration. […] The discrimination index (DI) [(time spent exploring the novel object—time spent exploring the familiar object)/total exploration time] was then calculated for retention trials. […]

[3] = system: male C57BL/6J mice; experiment: Novel object recognition (NOR), acute drug treatment / acute ketamine-induced deficit (Example 1); conditions: for discrimination index (DI) / NOR deficit: Example 1, FIG. 1; for preference for novel versus familiar object (exploration time), retention trial: Example 1
Method: as §1, §2, §3, §4

[4] = acute drug plus sal, rapastinel 1.0 mg/kg, ketamine 30 mg/kg
[5] = acute drug plus sal, 30 min prior to acquisition trial, rapastinel 1.0 mg/kg iv, ketamine 30 mg/kg ip

SMILES	discrimination index (DI) / NOR deficit ([1]; Example 2, FIG. 2, acute rapastinel 1.0 mg/kg in subchronic ketamine-treated mice)	discrimination index (DI) / NOR deficit ([1]; Example 2, FIG. 2, acute rapastinel 1.0 mg/kg in subchronic ketamine-treated mice, listed as rap)	preference for novel versus familiar object, retention trial ([1]; Example 2, acute rapastinel 1.0 mg/kg in subchronic ketamine-treated mice)	discrimination index (DI) / NOR deficit ([1]; Example 3, FIG. 3, subchronic ketamine-treated mice given sub-effective dose rapastinel 0.3 mg/kg and/or sub-effective dose lurasidone 0.1 mg/kg)	preference for novel versus familiar object, retention trial ([1]; Example 3, subchronic ketamine-treated mice given sub-effective dose rapastinel 0.3 mg/kg and/or sub-effective dose lurasidone 0.1 mg/kg)	discrimination index (DI) / NOR deficit ([2]; Example 2, FIG. 2, acute rapastinel 1.0 mg/kg in subchronic PCP-treated mice)	discrimination index (DI) / NOR deficit ([2]; Example 2, FIG. 2, acute rapastinel 1.0 mg/kg in subchronic PCP-treated mice, listed as rap)	preference for novel versus familiar object, retention trial ([2]; acute rapastinel 1.0 mg/kg in subchronic PCP-treated mice)	discrimination index (DI) / NOR deficit [3, 4]	discrimination index (DI) / NOR deficit ([3]; rapastinel 1.0 mg/kg plus acute ketamine 30 mg/kg)	discrimination index (DI) / NOR deficit ([3]; rapastinel 1.0 mg/kg plus acute ketamine 30 mg/kg, listed as Rap)	preference for novel versus familiar object (exploration time), retention trial [3, 5]	preference for novel versus familiar object (exploration time), retention trial ([3]; rapastinel 1.0 mg/kg prior to acute ketamine 30 mg/kg)	discrimination index (DI) ([2]; Example 2, FIG. 2, subchronic PCP alone, compared to sal plus sal)	preference for novel versus familiar object, retention trial ([2]; subchronic PCP 10 mg/kg ip twice daily 7 days, 7 day washout)	discrimination index (DI) ([1]; Example 2, FIG. 2, subchronic ketamine alone, compared to sal plus sal)	preference for novel versus familiar object, retention trial ([1]; Example 2, subchronic ketamine 30 mg/kg ip twice daily 7 days, 7 day washout)	discrimination index (DI) ([1]; Example 3, FIG. 3, subchronic ketamine plus sal, compared to saline controls)	preference for novel versus familiar object, retention trial ([1]; Example 3, subchronic ketamine alone)
CC(O)C(N)C(=O)N1CCCC1C(=O)N1CCCC1C(=O)NC(C(N)=O)C(C)O (stereo not drawn) [rapastinel, Rapastinel] (H-TPPT-NH2; configuration not given here)	significantly increased	significantly reversed	explored the novel object significantly more compared to the familiar object	neither drug above at these doses was effective; also recorded: significant reductions in the DI	abolished	significantly increased	significantly reversed	explored the novel object significantly more compared to the familiar object	did not induce NOR deficit	significantly prevented the acute ketamine-induced decrease in DI	significantly prevented the ket-induced NOR deficit	showed a clear preference for the novel compared to the familiar object	showed clear preference for the novel compared to the familiar object						
c1ccc(C2(N3CCCCC3)CCCCC2)cc1 [PCP, reference compound]														significantly reduced	abolished				
CNC1(c2ccccc2Cl)CCCCC1=O (stereo not drawn) [ketamine, Ketamine, reference compound]									induced a significant NOR deficit; also recorded: significantly reduced			abolished				significantly reduced	abolished	significant reductions in the DI	abolished
